# Data taken from patent US20230416677A1 (XCELL THERAPEUTICS INC., priority 2020, published 2023).
# Experiments:
# [1] = test system: Human dermal papilla cells (hDPC); assay: Passage culture of dermal papilla cells in albumin-added serum-free medium in the presence or absence of rotenone (density, doubling time, accumulated cell number, viability); type: cell-based
# Method: hDPCs were prepared in the same manner as in Example 1. […] The hDPCs were inoculated at a concentration of 1.52×10^5/flask. After culturing in a 5% carbon dioxide incubator at 37° C., photographs of the cells were taken before passage to confirm the density of dermal papilla cells according to the rotenone treatment.
# On the other hand, each time the density of the cells proliferated to 90% or more, the cells were passaged. During the passage, the cells were detached from each flask by the use of TrypLE Express, and then the cells were centrifuged. The supernatant was discarded to leave only the cells in the lower layer. The cells were well resuspended by adding a condition-based medium, and then the cell numbers were measured using NC250™ (Chemometec, Denmark). Using the measured cell number and culture time, the doubling time and accumulated cell numbers per day were calculated using the following Equation.
# A=previous passage, B=current passage
# Doubling time=ln(2)×(Δtime between B and A)/ln(count B/count A) [Equation 1]
# Accumulated cell number (ACN)=ACN of A×cell count of B/seeding number [Equation 2]
# Each time the density of the cells proliferated to 90% or more, the cells were passaged. During the passage, the cells were detached from each flask by the use of TrypLE Express, and then the cells were centrifuged. The supernatant was discarded to leave only the cells in the lower layer. The cells were well resuspended by adding a condition-based medium, and then the cell viability was measured using NC250™(Chemometec, Denmark) at each passage.
# [2] = test system: Human dermal papilla cells (hDPC); assay: Flow cytometry of dermal papilla cell biological markers; type: cell-based; details: serum-free medium with 0.1 g/L albumin and 1 to 100 pM rotenone versus control not treated with rotenone; FIG. 4
# Method: The cells were detached from each flask by the use of TrypLE Express, and then the cells were centrifuged. The supernatant was discarded to leave only the cells in the lower layer. The cells were fixed for 15 minutes using a 4% formaldehyde solution, and then reacted on ice for 10 minutes using a 0.5% tween-20 permeabilization solution to prepare cells. The prepared cells were well resuspended in PBS supplemented with 1% FBS, and then the cells were stained using an antibody serving as a previously selected biological marker. CD34 and HLA-DR were selected as negative markers, and alkaline phosphatase, versican, and CD105 were selected as positive markers. After fixing the stained cells with 4% formaldehyde solution for 15 minutes, and flow cytometry was performed using CytoFLEX (Beckman Coulter, USA).
# cell division = details: background statement; cited from earlier work
# [3] = test system: Human dermal papilla cells (hDPC); assay: CCK-8 proliferation of dermal papilla cells in serum-free medium treated with rotenone; type: cell-based; details: rotenone 10 to 100 pM, 72 hours, compared to control group (untreated) and PromoCell medium, FIG. 1
# Method: Human dermal papilla cells (hDPC) purchased from PromoCell were inoculated in a Follicle Dermal Papilla cell Growth media (Promocell, Heidelberg, Germany) supplemented with 1% Antibiotic and Antimycotic Hyclone sv30079.91 (hereinafter referred to as Promocell medium), and a serum-free medium, and cultured in a 5% carbon dioxide incubator at 37° C. to prepare cells. The prepared human dermal papilla cells (hDPCs) were seeded at a concentration of 2×10^3/well into 96-well plates, in which a serum-free medium treated with different concentrations (0, 1, 10, 100, 1000 pM) of rotenone (Tocris Bioscience, UK) was put, in a Follicle Dermal Papilla cell Growth media as a commercially available medium, and then cultured for 72 hours. Then, the culture medium in each well was removed, then added to 10 ul CCK-8 reagent and 90 ul medium, respectively, and cultured for 2 hours at a temperature of 37° C. The absorbance of the supernatant was measured at 450 nm using an ELISA reader to confirm the extent of cell proliferation.
smiles,measurement,setting,value
"C=C(C)[C@H]1Cc2c(ccc3c2OC2COc4cc(OC)c(OC)cc4C2C3=O)O1 (stereo in doubt) [rotenone, (2R,6aS,12aS)-1,2,6,6a,12 ,12a-hexahydro-2-isopropenyl-8,9-dimethoxychromeno[3,4-b]furo(2,3-h)chromen-6-one]",cell density of dermal papilla cells,"[1]; 10 pM rotenone versus rotenone-untreated group, serum-free medium with 0.1 g/L albumin, FIG. 3a",higher cell density
same,doubling time,"[1]; rotenone -treated versus rotenone-untreated group, serum-free medium with 0.1 g/L albumin, FIG. 3b",lower doubling time
same,cell viability,"[1]; rotenone-treated versus rotenone-untreated group, 0.1 g/L albumin, each passage, FIG. 3d",higher cell viability
same,accumulated cell numbers over time,"[1]; rotenone-treated versus rotenone-untreated group, 0.1 g/L albumin, FIG. 3c",higher
same,"biological positive markers (alkaline phosphatase, versican, CD105)",[2],maintained at higher levels
same,"negative markers (CD34, HLA-DR)",[2],maintained at lower levels
same,concentrations at which rotenone is known to inhibit cell division,cell division,10 to 100 nM
same,"proliferation of dermal papilla cells (CCK-8, absorbance 450 nm)",[3],proliferation of dermal papilla cells increases
